Results on one compound are retold here after patent US20260015436A1, “ANTIBODIES FOR CHELATED RADIONUCLIDES” (Hoffmann-La Roche Inc., priority 2018, published 2026).

Data set [1] relates to BxPC3 tumors. The experiment in a line: Protocol 93a: efficacy and biodistribution of CEA-PRIT, BxPC3 model. It counts as in vivo, mice. Particulars: day 47; 30+30 μCi. As to the method: (§1) The bispecific antibodies were compared side-by-side in single- and double-cycle treatment regimens.
(§2) Groups A-G represent the treated mice that were followed up for assessment of efficacy, whereas groups H-L comprise mice that were sacrificed for biodistribution purposes 24 h after their last ^212Pb-DOTAM injection.
For protocol 93a, mice (age 7 weeks) were injected s.c. into the right flank with 5×10^6 BxPC3 cells (passage 33) in 100 μL RPMI/Matrigel. Twelve days after tumor cell injection, mice were sorted into experimental groups with an average tumor volume of 235 mm^3.
(§3) To minimize re-ingestion of radioactive urine/feces after treatment cycle 1, cages were changed 4 hours after ^212Pb-DOTAM administration, and then again at 24 h p.i. […]
(§4) The tumor development in the mice was followed through repeated calipering three times a week. […] The body weight of the animals was measured repeatedly in the same fashion. […]
(§5) Mice in groups H, J, and L were sacrificed and necropsied 24 hours after their first and only injection of ^212Pb-DOTAM; groups I and K were sacrificed and necropsied 24 hours after their second ^212Pb-DOTAM injection. […] Collected samples were weighed and measured for radioactivity, and the percent injected dose per gram of tissue (% ID/g) subsequently calculated, including corrections for decay and background.

For data set [2], the system named is LS174T tumors. The experiment in a line: Protocol 93b: efficacy and biodistribution of CEA-PRIT, LS174T model. It is filed as in vivo, mice. Particulars: day 22; 30+30 μCi. How it is done: as §1, §2
For protocol 93b, mice (age 9 weeks) were injected s.c. into the right flank with 1×10^6 LS174T cells (passage 26) in 100 μL DMEM/Matrigel. Three days after tumor cell injection, mice were sorted into experimental groups with an average tumor volume of 150 mm^3.
as §3, §4, §5

For data set [3], the system named is BxPC3 tumors. Kind of data set: Protocol 103: efficacy of CEA-PRIT, s.c. BxPC3 tumors. Particulars: result in words. It counts as in vivo, SCID mice. How it is done:
Step 1: Administration of a BsAb (i.v. or i.p.): The BsAb used in the studies binds Pb-DOTAM with high affinity and targets the tumor e.g. via CEA.
Step 2: Administration of CA (i.v. or i.p.): To allow efficient tumor accumulation of ^212Pb-DOTAM, circulating BsAb needs to be neutralized in the blood using a CA that blocks ^212Pb-DOTAM binding to unbound BsAb, without penetrating into the tumor and consequently blocking the pretargeted sites. The CA is administered once the BsAb has accumulated to a sufficient degree in the tumor, generally after 4-10 days. […]
The body weight (BW) of the study animals was measured at least 3 times per week, with additional measurements as needed depending on the health status. […]
where d indicates treatment day and 0 the baseline value. […] Tumor regression (TR) was calculated according to: […]
This study assessed the efficacy of CEA-PRIT using the CEA-DOTAM BsAb for treatment of s.c. BxPC3 tumors in mice. The therapy was administered either as a single treatment with 10 or 30 μCi of ^212Pb-DOTAM, or in three repeated cycles for each of the two radioactivity levels. […] Biodistributions were performed after the first and second cycle to confirm ^212Pb-DOTAM targeting and clearance, and the treatment efficacy was assessed in terms of TGI, TR, and survival. […]

For the compound `NC(=O)CN1CCN(CC(N)=O)CCN(CC(N)=O)CCN(CC(N)=O)CC1.[212Pb+2]` [^212Pb-DOTAM], the “tumor growth inhibition (TGI) compared with PBS” value in data set [1] was 15.8%. In addition, the “TGI compared with PBS” value in data set [2] is listed as 64.7%. Further, the “radiation-induced toxicity / tolerability” value in data set [3] (10 μCi) was “safe radioactivity level”; in data set [3] (30 μCi), “approaching the maximum tolerated activity”.
